Key:
[1] = tested on: NUFIP2; experiment: Confocal microscopy of NUFIP2 localisation in Huh7 cells; format: cell-based, human; settings: 2 mM LLOMe for 30 min
Procedure: Huh7 cells Were treated with 2 mM LLOMe for 30 min and stained for endogenous G3BP1 and NUFIP2. Scale bar, 5 μm. […] The sequence in red (SEQ ID NO: 1), predicted NLS in NUFIP2, was deleted for generating NUFIP2ΔNLS. […] FIG. 4SG show the quantification by HCM of overlaps between mTOR and LAMP2 in Gal8WT^HeLa or Gal8KO^HeLa cells treated with 2 mM LLOMe for 30 min. White masks, algorithm-defined cell boundaries. Yellow masks, computer-identified overlap of mTOR and LAMP2. […] Red masks, computer-identified G3BP1 puncta. Ctrl, control (untreated cells). Data, means±SEM; HCM: n≥3 (each experiment: 500 valid primary objects/cells per Well, ≥5 Well s/sample). †p≥0.05 (not significant), **p<0.01, ANOVA. See also FIG. 3 and FIG. 4.

[2] = tested on: mTOR and Raptor on lysosomes; experiment: LysoIP quantitative DIA proteomics (LC/MS/MS) of lysosomes from HEK293T cells; format: cell-based, human; settings: 1 mM LLOMe for 30 min
Procedure: Three groups of proteins are labeled (ESCRT components in green, autophagy factors in blue and stress granule components in purple). […] The dotted orange line indicates the significance cut-off (P<0.05). […] The significant increased proteins in LysoIP LC/MS/MS were analyzed by STRING functional protein association networks. […] Strength, Log 10(observed/expected) describes how large the enrichment effect is. […] TMEM192-2×FLAG, control. […] U20S cells Were treated with Earle's Balanced Salt Solution (EBSS), 4 mM LOMe, 2 mM LLOMe, 200 μM GPN, or 400 μg/mL silica for 30 min. White masks, algorithm-defined cell boundaries (primary objects); red masks, computer-identified G3BP1 puncta (target objects). […] U2OS cells Were treated with 2 mM LLOMe for 30 min and stained for endogenous G3BP1. Scale bar, 5 μm. […] Green masks, computer-identified G3BP1 puncta. […] Red masks, computer-identified Galectin-3 puncta. FIG. 1G Immunoblot analysis of eIF2α (S51) phosphorylation in U2OS cells treated with 2 mM LLOMe for 30 min and followed by 1 h washout. […] The level of phosphorylation of eIF2α (S51) is quantified based on three independent experiments. […] Scale bar, 5/10 μm. […] The level of ATF4 and phosphorylation of eIF2α (S51) and 4EBP1 (S65) are quantified based on three independent experiments. Ctrl, control (untreated cells). […]

[3] = tested on: mTOR; experiment: Immunoblot analysis of S6K1 (T389) phosphorylation in HeLa cells; format: cell-based, human; settings: HeLa (WT) cells, 4 mM LLOMe for 30 min
[4] = tested on: G3BP1+ SGs and lysosomes (LAMP2); experiment: HCM quantification of G3BP1+ SGs associated with lysosomes (LAMP2); format: cell-based; settings: 30 min after exposure to LLOMe
Procedure: Do SGs induced by lysosomal damage associate with lysosomes? The inventors addressed this by imaging analysis. By confocal fluorescence microscopy, the majority of G3BP1-positive SGs formed during lysosomal damage were either independent of lysosomes or juxtaposed to lysosomes (FIG. 3SA). By HCM quantification, only 10% of G3BP1^+ SGs appeared associated with lysosomes (LAMP2) 30 min after exposure to lysosomal damaging agent LLOMe. The inventors then asked the question whether SGs formed in response to lysosomal damage initiate as a nidus on the lysosomal surface. Using live microscopy, the inventors observed that the majority of SGs Were forming in locations independent of lysosomes (FIG. 3SB).

COC(=O)[C@H](CC(C)C)NC(=O)[C@@H](N)CC(C)C [LLOMe, L-leucyl-L-leucine methyl ester]
NUFIP2 localisation upon lysosomal damage [1]: NUFIP2 translocated from the nucleus into the cytosol | mTOR and Raptor association with lysosomes (mass spectrometry) [2]: mTOR and Raptor dissociate from lysosomes | pT389 S6K levels (mTOR activity) [3]: drop in pT389 S6K levels | G3BP1+ SGs associated with lysosomes (LAMP2) [4]: 10%
